Data set [1] is described as follows: refractive index (Na D-line) (dimensionless); wn = mass fraction of the nth substance listed. The following applies: 298.15 K, 100 kPa, Liquid, Standard Abbe refractometry.
The nature of data set [2]: wn = mass fraction of the nth substance listed. The conditions noted are these: 298.15 K, 100 kPa, Liquid, Vibrating tube method.

The results in this text go back to the NIST ThermoML archive (doi:10.1021/acs.jced.9b00780).

Numbers after ± are expanded uncertainties.

As usually defined, the refractive index is the speed of light in vacuum divided by its phase velocity in the sample. By mass density is commonly meant the mass of a sample divided by its volume.

For the compound `O=BOB([O-])OB([O-])OB=O.[Na+].[Na+]` [sodium tetraborate] + O, the refractive index in data set [1] (w1 = 0.0308) is 1.339 ± 0.003. The mass density in data set [2] (w1 = 0.0308) came out at 1025.65 ± 0.63 kg/m3.

Turning to `O=B[O-].[Na+]` [sodium metaborate] + O, the refractive index in data set [1] (w1 = 0.2259) worked out at 1.3872 ± 0.0033. In addition, the mass density in data set [2] (w1 = 0.2259) is reported as 1267.8 ± 6.2 kg/m3.
